System: Transport facilitation protein genes
Assay: DNA chip mRNA expression in yeast, transport facilitation protein genes (Table 5)
Assay type: cell-based, Saccharomyces cerevisiae S288C
In short: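 Measured as treated-to-untreated fluorescence ratio on a full-genome yeast DNA chip. Cells (S288C, YPD, 25° C.) were exposed in log phase for two hours to one chemical, dosed to curb growth without killing.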

**Q.** How did the “The level of expressed mRNA in the presence of chemical substance/The level of expressed mRNA in the absence of chemical substance” value (yeast gene YGR224W) turn out when Na2As [(1)] was run?
**A.** The value was 0.9.

**Q.** And the “The level of expressed mRNA in the presence of chemical substance/The level of expressed mRNA in the absence of chemical substance” value (yeast gene YGR260W)?
**A.** The value was 0.6.

**Q.** And the “The level of expressed mRNA in the presence of chemical substance/The level of expressed mRNA in the absence of chemical substance” value (yeast gene YGR281W)?
**A.** The value was 1.2.

**Q.** And the “The level of expressed mRNA in the presence of chemical substance/The level of expressed mRNA in the absence of chemical substance” value (yeast gene YHL035C)?
**A.** The value was 0.7.

**Q.** And the “The level of expressed mRNA in the presence of chemical substance/The level of expressed mRNA in the absence of chemical substance” value (yeast gene YHL040C)?
**A.** The value was 1.6.

**Q.** What about the “The level of expressed mRNA in the presence of chemical substance/The level of expressed mRNA in the absence of chemical substance” value (yeast gene YHL047C) of the same substance?
**A.** The value was 0.6.

**Q.** And the “The level of expressed mRNA in the presence of chemical substance/The level of expressed mRNA in the absence of chemical substance” value (yeast gene YHR026W)?
**A.** Its value is 0.9.

**Q.** What about the “The level of expressed mRNA in the presence of chemical substance/The level of expressed mRNA in the absence of chemical substance” value (yeast gene YHR092C) of the same substance?
**A.** The value was 2.3.

**Q.** And the “The level of expressed mRNA in the presence of chemical substance/The level of expressed mRNA in the absence of chemical substance” value (yeast gene YHR094C)?
**A.** The value was 0.7.

**Q.** What about the “The level of expressed mRNA in the presence of chemical substance/The level of expressed mRNA in the absence of chemical substance” value (yeast gene YHR175W) of the same substance?
**A.** The value was 0.8.

**Q.** And the “The level of expressed mRNA in the presence of chemical substance/The level of expressed mRNA in the absence of chemical substance” value (yeast gene YIL006W)?
**A.** Its value is 1.0.

**Q.** What about the “The level of expressed mRNA in the presence of chemical substance/The level of expressed mRNA in the absence of chemical substance” value (yeast gene YIL022W) of the same substance?
**A.** Its value is 0.8.

**Q.** And the “The level of expressed mRNA in the presence of chemical substance/The level of expressed mRNA in the absence of chemical substance” value (yeast gene YIL056W)?
**A.** Its value is 1.1.

**Q.** And the “The level of expressed mRNA in the presence of chemical substance/The level of expressed mRNA in the absence of chemical substance” value (yeast gene YIL088C)?
**A.** Its value is 0.9.

**Q.** And the “The level of expressed mRNA in the presence of chemical substance/The level of expressed mRNA in the absence of chemical substance” value (yeast gene YJL034W)?
**A.** Its value is 0.7.

**Q.** And the “The level of expressed mRNA in the presence of chemical substance/The level of expressed mRNA in the absence of chemical substance” value (yeast gene YJL212C)?
**A.** The value was 0.8.

**Q.** What about the “The level of expressed mRNA in the presence of chemical substance/The level of expressed mRNA in the absence of chemical substance” value (yeast gene YJL219W) of the same substance?
**A.** Its value is 1.2.

**Q.** And the “The level of expressed mRNA in the presence of chemical substance/The level of expressed mRNA in the absence of chemical substance” value (yeast gene YJR077C)?
**A.** Its value is 1.1.

**Q.** What about the “The level of expressed mRNA in the presence of chemical substance/The level of expressed mRNA in the absence of chemical substance” value (yeast gene YJR106W) of the same substance?
**A.** The value was 0.9.

**Q.** And the “The level of expressed mRNA in the presence of chemical substance/The level of expressed mRNA in the absence of chemical substance” value (yeast gene YJR121W)?
**A.** Its value is 0.9.

**Q.** What about the “The level of expressed mRNA in the presence of chemical substance/The level of expressed mRNA in the absence of chemical substance” value (yeast gene YKL016C) of the same substance?
**A.** Its value is 1.5.

**Q.** What about the “The level of expressed mRNA in the presence of chemical substance/The level of expressed mRNA in the absence of chemical substance” value (yeast gene YKL146W) of the same substance?
**A.** Its value is 0.8.

**Q.** And the “The level of expressed mRNA in the presence of chemical substance/The level of expressed mRNA in the absence of chemical substance” value (yeast gene YKR039W)?
**A.** The value was 1.4.

**Q.** What about the “The level of expressed mRNA in the presence of chemical substance/The level of expressed mRNA in the absence of chemical substance” value (yeast gene YKR067W) of the same substance?
**A.** The value was 0.8.

**Q.** What about the “The level of expressed mRNA in the presence of chemical substance/The level of expressed mRNA in the absence of chemical substance” value (yeast gene YLL028W) of the same substance?
**A.** The value was 0.6.

**Q.** And the “The level of expressed mRNA in the presence of chemical substance/The level of expressed mRNA in the absence of chemical substance” value (yeast gene YLR081W)?
**A.** Its value is 1.3.

**Q.** What about the “The level of expressed mRNA in the presence of chemical substance/The level of expressed mRNA in the absence of chemical substance” value (yeast gene YLR295C) of the same substance?
**A.** The value was 1.4.

**Q.** And the “The level of expressed mRNA in the presence of chemical substance/The level of expressed mRNA in the absence of chemical substance” value (yeast gene YLR348C)?
**A.** The value was 1.1.

**Q.** And the “The level of expressed mRNA in the presence of chemical substance/The level of expressed mRNA in the absence of chemical substance” value (yeast gene YLR378C)?
**A.** The value was 0.7.

**Q.** And the “The level of expressed mRNA in the presence of chemical substance/The level of expressed mRNA in the absence of chemical substance” value (yeast gene YMR011W)?
**A.** Its value is 1.3.

**Q.** What about the “The level of expressed mRNA in the presence of chemical substance/The level of expressed mRNA in the absence of chemical substance” value (yeast gene YMR162C) of the same substance?
**A.** The value was 0.8.

**Q.** What about the “The level of expressed mRNA in the presence of chemical substance/The level of expressed mRNA in the absence of chemical substance” value (yeast gene YMR203W) of the same substance?
**A.** The value was 0.8.

**Q.** What about the “The level of expressed mRNA in the presence of chemical substance/The level of expressed mRNA in the absence of chemical substance” value (yeast gene YNL055C) of the same substance?
**A.** Its value is 1.1.

**Q.** What about the “The level of expressed mRNA in the presence of chemical substance/The level of expressed mRNA in the absence of chemical substance” value (yeast gene YNR072W) of the same substance?
**A.** Its value is 1.1.

**Q.** And the “The level of expressed mRNA in the presence of chemical substance/The level of expressed mRNA in the absence of chemical substance” value (yeast gene YOL119C)?
**A.** Its value is 2.6.

**Q.** And the “The level of expressed mRNA in the presence of chemical substance/The level of expressed mRNA in the absence of chemical substance” value (yeast gene YOL156W)?
**A.** Its value is 1.1.

**Q.** And the “The level of expressed mRNA in the presence of chemical substance/The level of expressed mRNA in the absence of chemical substance” value (yeast gene YOL163W)?
**A.** Its value is 1.5.

**Q.** And the “The level of expressed mRNA in the presence of chemical substance/The level of expressed mRNA in the absence of chemical substance” value (yeast gene YOR035C)?
**A.** The value was 1.2.

**Q.** And the “The level of expressed mRNA in the presence of chemical substance/The level of expressed mRNA in the absence of chemical substance” value (yeast gene YOR130C)?
**A.** Its value is 0.8.

**Q.** What about the “The level of expressed mRNA in the presence of chemical substance/The level of expressed mRNA in the absence of chemical substance” value (yeast gene YOR153W) of the same substance?
**A.** The value was 1.6.

**Q.** What about the “The level of expressed mRNA in the presence of chemical substance/The level of expressed mRNA in the absence of chemical substance” value (yeast gene YOR273C) of the same substance?
**A.** The value was 0.7.

**Q.** What about the “The level of expressed mRNA in the presence of chemical substance/The level of expressed mRNA in the absence of chemical substance” value (yeast gene YOR316C) of the same substance?
**A.** The value was 0.7.

**Q.** And the “The level of expressed mRNA in the presence of chemical substance/The level of expressed mRNA in the absence of chemical substance” value (yeast gene YOR328W)?
**A.** Its value is 1.0.

**Q.** What about the “The level of expressed mRNA in the presence of chemical substance/The level of expressed mRNA in the absence of chemical substance” value (yeast gene YOR332W) of the same substance?
**A.** The value was 1.1.

**Q.** And the “The level of expressed mRNA in the presence of chemical substance/The level of expressed mRNA in the absence of chemical substance” value (yeast gene YOR348C)?
**A.** The value was 1.1.

**Q.** And the “The level of expressed mRNA in the presence of chemical substance/The level of expressed mRNA in the absence of chemical substance” value (yeast gene YPL036W)?
**A.** The value was 0.5.

**Q.** What about the “The level of expressed mRNA in the presence of chemical substance/The level of expressed mRNA in the absence of chemical substance” value (yeast gene YPL134C) of the same substance?
**A.** Its value is 1.5.

**Q.** What about the “The level of expressed mRNA in the presence of chemical substance/The level of expressed mRNA in the absence of chemical substance” value (yeast gene YPL271W) of the same substance?
**A.** Its value is 1.2.

**Q.** What about the “The level of expressed mRNA in the presence of chemical substance/The level of expressed mRNA in the absence of chemical substance” value (yeast gene YPR192W) of the same substance?
**A.** The value was 0.9.

**Q.** And the “The level of expressed mRNA in the presence of chemical substance/The level of expressed mRNA in the absence of chemical substance” value (yeast gene YPR194C)?
**A.** Its value is 2.2.

— patent US8192962B2, “Processes for detecting toxic substances” (Daikin Industries, Ltd., priority 2001, dated 2012)
